Source: the supplement of paper PMC10307832

Assays:
Assay in all cases: relative viability (nuclei count vs DMSO), 5 days (fraction); higher = more cells survive
[1] = compound: CS(=O)(=O)c1ccc(C(=O)Nc2ccc(Cl)c(-c3ccccn3)c2)c(Cl)c1 [Vismodegib] + O=C(c1cc(Cc2n[nH]c(=O)c3ccccc23)ccc1F)N1CCN(C(=O)C2CC2)CC1 [Olaparib] (partner 8 µM)
In short: (§1)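 Relative viability was taken as the ratio of nuclei in treated wells to nuclei in vehicle wells. Lung cancer cell lines in 1536-well plates received compounds by pin tool one day after seeding, either one drug alone or a fixed anchor-drug dose plus five library-drug doses (not always all listed) in √10 steps. Nuclei were counted on 4× images after 5 days of treatment, and values are medians of duplicate plates.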

[2] = compound: CS(=O)(=O)c1ccc(C(=O)Nc2ccc(Cl)c(-c3ccccn3)c2)c(Cl)c1 [Vismodegib] + Nc1nc2[nH]cc(CCc3ccc(C(=O)N[C@@H](CCC(=O)O)C(=O)O)cc3)c2c(=O)[nH]1 [Pemetrexed] (partner 0.2 µM)
In short: as §1

[3] = compound: CS(=O)(=O)c1ccc(-c2cnc(N)c(C(=O)Nc3ccccc3)n2)cc1 [VE-821] + O=C(c1cc(Cc2n[nH]c(=O)c3ccccc23)ccc1F)N1CCN(C(=O)C2CC2)CC1 [Olaparib] (partner 8 µM)
In short: as §1

[4] = compound: CS(=O)(=O)c1ccc(C(=O)Nc2ccc(Cl)c(-c3ccccn3)c2)c(Cl)c1 [Vismodegib] + N=C(N)NC(=N)NCCc1ccccc1 [Phenformin] (partner 250 µM)
In short: as §1

Cell Line | relative viability ([1]; first compound 0.08 µM) | relative viability ([1]; first compound 0.253 µM) | relative viability ([1]; first compound 0.8 µM) | relative viability ([1]; first compound 2.53 µM) | relative viability ([1]; first compound 8 µM) | relative viability ([2]; first compound 0.08 µM) | relative viability ([2]; first compound 0.253 µM) | relative viability ([2]; first compound 0.8 µM) | relative viability ([2]; first compound 2.53 µM) | relative viability ([2]; first compound 8 µM) | relative viability ([3]; first compound 0.08 µM) | relative viability ([3]; first compound 0.253 µM) | relative viability ([3]; first compound 0.8 µM) | relative viability ([3]; first compound 2.53 µM) | relative viability ([3]; first compound 8 µM) | relative viability ([4]; first compound 0.08 µM) | relative viability ([4]; first compound 0.253 µM) | relative viability ([4]; first compound 0.8 µM) | relative viability ([4]; first compound 2.53 µM) | relative viability ([4]; first compound 8 µM)
NCI-H838 | 0.791 | 0.71 | 0.777 | 0.757 | 0.778 | 0.226 | 0.247 | 0.241 | 0.23 | 0.262 | 0.866 | 0.856 | 0.765 | 0.638 | 0.365 | 0.53 | 0.573 | 0.559 | 0.67 | 0.612
SW 1573 | – | 0.487 | 0.476 | 0.442 | 0.497 | 0.79 | 0.894 | 0.764 | 0.855 | 0.865 | 0.533 | 0.516 | 0.418 | 0.269 | 0.21 | 0.493 | 0.353 | 0.4 | 0.323 | 0.385
NCI-H2085 | 0.724 | 0.816 | 0.775 | 0.74 | 0.712 | 0.78 | 0.887 | 0.944 | 0.98 | 0.865 | 0.774 | 0.747 | 0.844 | – | 0.694 | 0.698 | 0.749 | 0.714 | 0.718 | 0.697
NCI-H1651 | 0.176 | 0.192 | 0.188 | 0.182 | 0.204 | 0.518 | 0.65 | 0.594 | 0.473 | 0.48 | 0.187 | 0.204 | 0.19 | 0.163 | 0.165 | 0.353 | 0.336 | 0.365 | 0.343 | 0.327
